For one assay, the target named is T1, arginase activity in intact BMM-M2 cells (Mus musculus, UniProt Q61176).
T1 construct: endogenous in cells; host or cells: bone-marrow derived macrophages from male C57BL/6 mice, polarised to M2 with IL-4
T1 sequence (Q61176 1-323): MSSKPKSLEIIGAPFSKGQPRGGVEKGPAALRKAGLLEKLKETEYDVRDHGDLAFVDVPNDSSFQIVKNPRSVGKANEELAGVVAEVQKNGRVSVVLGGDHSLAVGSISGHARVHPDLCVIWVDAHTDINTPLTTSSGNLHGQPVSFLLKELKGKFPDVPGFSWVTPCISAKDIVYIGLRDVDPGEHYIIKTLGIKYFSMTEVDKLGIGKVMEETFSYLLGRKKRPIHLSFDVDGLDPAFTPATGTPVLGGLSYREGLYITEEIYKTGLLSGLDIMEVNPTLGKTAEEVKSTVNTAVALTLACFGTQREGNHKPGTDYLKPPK
In words: Cell-based arginase assay: urea production by cultured BMM-M2 cells. The note with it: 10 μM test compound, 24 h. The protocol: Murine bone-marrow derived macrophages (BMM) represent a convenient in vitro model that enables differentiation of these cells towards M1 or M2 macrophages. Briefly, male C57BL/6 mice 7-8 weeks old were euthanized by carbon dioxide asphyxiation. Femur and tibiae bones were removed under aseptic conditions and collected in a plate containing sterile ice-cold PBS 1×. After sterilization of bones in 70% ethanol during 1 min, bones were placed into a clean Petri dish containing fresh sterile ice-cold PBS 1×. The ends of each bone were cut and the marrow cavity was flushed using forceps and syringes filled with pre-warmed complete α-MEM growing medium (α-MEM without red phenol (Life Technologies, Cat. No. #41061-029) supplemented with 10% FBS, penicillin and streptomycin). Bone marrow (BM) cells were harvested in a 15 ml clean tube and centrifuged at 400 g for 8 min at RT. Supernatant was discarded and BM pellet was re-suspended in 5 ml Ammonium-Chloride-Potassium (ACK) buffer for 5 minutes at RT to lysis RBC. BM cell suspension was centrifuged at 400 g for 8 min at RT. Supernatant was discarded and BM cell pellet was re-suspended in complete α-MEM growing medium and passed through a 70 μm cell restrainer to eliminate solid contaminates and cellular aggregates. BM cells were seeded in 8 ml of complete α-MEM growing medium supplemented with 100 ng/ml recombinant mouse M-CSF (R&D Systems, Cat. No. #416-ML-050) in 100-mm dishes. BM cells were cultured overnight to get rid of contaminating stromal cells in a humidified incubator with 5% CO2 at 37° C. At the following day, non-adherent cells were collected in a clean 15-ml tube and centrifuged at 400 g for 8 min at RT. Cell pellet was re-suspended in complete α-MEM growing medium and counted using a hemocytometer Neubauer's chamber. Hematopoietic precursor cells were differentiated into BMM in presence of complete α-MEM growing medium supplemented 50 ng/ml M-CSF for 3 days. Finally to polarize BMM towards M2 phenotype, cells were incubated in presence 20 ng/ml of recombinant mouse IL-4 (R&D Systems, Cat. No. #404-ML-010) added to fresh complete α-MEM growing medium supplemented 50 ng/ml M-CSF for 24 h.
At the day of the experiment, BMM-M2 were treated for 24 h with vehicle (DMSO) or compounds of the invention at 1 and 10 μM prepared in fresh complete α-MEM growing medium supplemented 50 ng/ml M-CSF, 20 ng/ml IL-4 and 10 mM L-arginine (Cat. No. #A5006, Sigma Aldrich). At the next day, 70 μl aliquots of each treated culture media (supernatants) were transferred into a clear 96-well plate. Measurements of urea produced by BMM-M2 were performed using the adapted protocol detailed in Example B1. Wells without BMM-M2 containing only treatment media (vehicle) were used to determine the zero cell-derived urea production (blank). All treatments were carried out in triplicates.
The inhibition of urea production was calculated subtracting the absorbance from the blank to the absorbance from all treatments and it was expressed as the percentage of the absorbance from the reaction containing the test article treatment with respect to the absorbance from vehicle treatment (maximum of urea production).
`CC1(C)OB(CCCCC(N)(C(=O)O)C2CCN(C3CCCc4ccccc43)CC2)OC1(C)C` (stereo not shown) [Compound 77, 2-amino-2-(1-(1,2,3,4-tetrahydronaphthalen-1-yl)piperidin-4-yl)-6-(4,4,5,5-tetramethyl-1,3,2-dioxaborolan-2-yl)hexanoic acid]: the “Inh. urea production @10 μM (%)” value is on record as “++ (25% < % inhibition < 15% at 10 μM test compound)”.

Regarding `CC(c1ccccc1)N1CCC(C(N)(CCCCB(O)O)C(=O)O)CC1` (stereo not shown) [Compound 9, 2-amino-6-borono-2-(1-(1-phenylethyl)piperidin-4-yl)hexanoic acid], the “Inh. urea production @10 μM (%)” value is on record as “++ (25% < % inhibition < 15% at 10 μM test compound)”.

The same assay, now with this note: 10 μM test compound, 24 h, 10 µM.
Turning to `NC(CCCCB(O)O)(C(=O)O)C1CCN(C2CCc3ccccc32)CC1` (single isomer, unassigned) [Compound 2, 2-amino-6-borono-2-(1-(2,3-dihydro-1H-inden-1-yl)piperidin-4-yl)hexanoic acid], the “Inh. urea production @10 μM (%)” value is given as “+++ (% inhibition > 25 at 10 μM test compound)”.

With `CC(c1ccccc1)N1CCC(C(N)(CCCCB(O)O)C(=O)O)CC1` (single isomer, unassigned) [Compound 11, 2-amino-6-borono-2-(1-(1-phenylethyl)piperidin-4-yl)hexanoic acid], the “Inh. urea production @10 μM (%)” value was “+ (% inhibition < 15 at 10 μM)”.

`NC(CCCCB(O)O)(C(=O)O)C1CCN(C2CCCc3ccccc32)CC1` (single isomer, unassigned) [Compound 6, 2-amino-6-borono-2-(1-(1,2,3,4-tetrahydronaphthalen-1-yl)piperidin-4-yl)hexanoic acid]: the “Inh. urea production @10 μM (%)” value was “+ (% inhibition < 15 at 10 μM)”.

Staying with this assay, now noted: 10 μM test compound, 24 h, read-out: Inh. urea production @10 μM (%).
As to `NC(CCCCB(O)O)(C(=O)O)C1CCN(C2CCCc3cc(Cl)ccc32)CC1` (single isomer, unassigned) [Compound 17, 2-amino-6-borono-2-(1-(6-chloro-1,2,3,4-tetrahydronaphthalen-1-yl)piperidin-4-yl)hexanoic acid], the inhibition at 10 µM was greater than 25%.

With `NC(CCCCB(O)O)(C(=O)O)C1CCN(C2CCCc3ccccc32)CC1` (single isomer, unassigned) [Compound 4, 2-amino-6-borono-2-(1-(1,2,3,4-tetrahydronaphthalen-1-yl)piperidin-4-yl)hexanoic acid], the inhibition at 10 µM was greater than 25%.

With `NC(CCCCB(O)O)(C(=O)O)C1CCN(C2CCc3cc(C(F)(F)F)ccc32)CC1` (single isomer, unassigned) [Compound 85, 2-amino-6-borono-2-[1-[5-(trifluoromethyl)indan-1-yl]-4-piperidyl]hexanoic acid], the inhibition at 10 µM is greater than 25%.

For the compound `NC(CCCCB(O)O)(C(=O)O)C1CCN(C2CCc3ccccc32)CC1` (stereo not shown) [Compound 1, 2-amino-6-borono-2-(1-(2,3-dihydro-1H-inden-1-yl)piperidin-4-yl)hexanoic acid], the inhibition at 10 µM is greater than 25%.

Take `CC(c1ccccc1)N1CCC(C(N)(CCCCB(O)O)C(=O)O)CC1` (single isomer, unassigned) [Compound 10, 2-amino-6-borono-2-(1-(1-phenylethyl)piperidin-4-yl)hexanoic acid]: the inhibition at 10 µM was greater than 25%.

With `NC(CCCCB(O)O)(C(=O)O)C1CCN(C2CCc3cc(Cl)ccc32)CC1` (single isomer, unassigned) [Compound 14, 2-amino-6-borono-2-[1-(5-chloroindan-1-yl)-4-piperidyl]hexanoic acid], the inhibition at 10 µM was greater than 25%.

On to `NC(CCCCB(O)O)(C(=O)O)C1CCN(C2CCCc3ccc(F)cc32)CC1` (single isomer, unassigned) [Compound 83, 2-amino-6-borono-2-(1-(7-fluoro-1,2,3,4-tetrahydronaphthalen-1-yl)piperidin-4-yl)hexanoic acid], for which the inhibition at 10 µM is greater than 25%.

As for `NC(CCCCB(O)O)(C(=O)O)C1CCN(C2CCCCc3ccccc32)CC1` (single isomer, unassigned) [Compound 84, 2-amino-6-borono-2-(1-(6,7,8,9-tetrahydro-5H-benzo[7]annulen-5-yl)piperidin-4-yl)hexanoic acid], the inhibition at 10 µM is greater than 25%.

Take `CNC(CCCCB(O)O)(C(=O)O)C1CCN(C2CCCc3ccccc32)CC1` (single isomer, unassigned) [Compound 79, 6-borono-2-(methylamino)-2-(1-(1,2,3,4-tetrahydronaphthalen-1-yl)piperidin-4-yl)hexanoic acid]: the inhibition at 10 µM was greater than 25%.

As for `NC(CCCCB(O)O)(C(=O)O)C1CCN(C2CCCc3ccccc32)CC1` (single isomer, unassigned) [Compound 5, 2-amino-6-borono-2-(1-(1,2,3,4-tetrahydronaphthalen-1-yl)piperidin-4-yl)hexanoic acid], the inhibition at 10 µM was greater than 25%.

In the case of `NC(CCCCB(O)O)(C(=O)O)C1CCN(C2CCc3ccccc32)CC1` (single isomer, unassigned) [Compound 3, 2-amino-6-borono-2-(1-(2,3-dihydro-1H-inden-1-yl)piperidin-4-yl)hexanoic acid], the inhibition at 10 µM is less than 15%.

The values above are taken from US20220017541A1, “INHIBITORS OF ARGINASE” (Black Belt Tx Ltd, priority 2018, published 2022).
